pIC50, pKd: −log10 of the molar value. Active and inactive are the calls of the source. The calls are words filed in the database; no cut-off is given here.
Columns and labels:
MIA PaCa-2 [1] = experiment: Cytotoxicity against human MIA PaCa-2 cells harboring KRAS G12C mutant assessed as cell growth inhibition incubated for 24 hrs by MTT assay; format: functional, cell-based; settings: MIA PaCa-2, 24 h
[2] = Cytotoxicity against human PANC-1 cells […] assessed as cell growth inhibition incubated for 24 hrs by MTT assay; format: functional, cell-based; settings: PANC-1, 24 h
NCM460 = experiment: Cytotoxicity against human NCM460 cells harboring wild-type KRAS assessed as cell growth inhibition incubated for 24 hrs by MTT assay; format: functional, cell-based; settings: NCM460, 24 h
[3] = molecular target: GTPase KRas (Homo sapiens) (UniProt P01116); experiment: Inhibition of KRAS in human PANC-1 cells at 2.5 uM incubated for 24 hrs by Western blot analysis; format: cell-based
PANC-1 [4] = experiment: Cytotoxicity against human PANC-1 cells overexpressing KRAS G12D mutant assessed as cell death incubated for 24 hrs by MTT assay; format: functional, cell-based
SW-620 = experiment: Cytotoxicity against human SW620 cells harboring KRAS G12V mutant assessed as cell growth inhibition incubated for 24 hrs by MTT assay; format: functional, cell-based; settings: SW-620, 24 h
NCI-H358 [5] = experiment: Cytotoxicity against human NCI-H358 cells harboring KRAS G12C mutant assessed as cell growth inhibition incubated for 24 hrs by MTT assay; format: functional, cell-based; settings: NCI-H358, 24 h
U-87 MG = experiment: Cytotoxicity against human U-87 MG cells harboring wild-type KRAS assessed as cell growth inhibition incubated for 24 hrs by MTT assay; format: functional, cell-based, U-87MG ATCC
[6] = Cytotoxicity against human HFL1 cells harboring wild-type KRAS assessed as cell growth inhibition incubated for 24 hrs by MTT assay; format: toxicity, cell-based
[7] = tested on: GTPase KRas (Homo sapiens), P01116 [G12C]; experiment: Inhibition of KRAS G12C mutant in human MIA PaCa-2 cells at 2.5 uM by Western blot analysis; format: cell-based; settings: time <= 48.0 hrs, TDE = time-dependent effect
[8] = tested on: GTPase KRas (Homo sapiens), P01116 [G12D]; experiment: Inhibition of KRAS G12D mutant in human PANC-1 cells incubated for 24 hrs by Western blot analysis; format: cell-based; settings: dose <= 5.0 µM
[9] = tested on: GTPase KRas (Homo sapiens), P01116 [G12D]; experiment: Inhibition of KRAS G12D mutant in human PANC-1 cells at 2.5 uM by Western blot analysis; format: cell-based; settings: time <= 48.0 hrs, TDE = time-dependent effect
[10] = tested on: GTPase KRas (Homo sapiens), P01116 [G12C]; experiment: Inhibition of KRAS G12C mutant in human NCI-H358 cells incubated for 24 hrs by Western blot analysis; format: cell-based; settings: dose <= 5.0 µM
PANC-1 [11] = experiment: Effect on NRAS level in human PANC-1 cells harboring KRAS G12D mutant at 1.25 to 5 uM by Western blot analysis; format: functional, cell-based; settings: dose 1.25-5 µM
MIA PaCa-2 [12] = experiment: Effect on KRAS mRNA level in human MIA PaCa-2 cells harboring KRAS G12C mutant at upto 5 uM incubated upto 48 hrs by RT-qPCR analysis; format: functional, cell-based
NCI-H358 [13] = experiment: Effect on KRAS mRNA level in human NCI-H358 cells harboring KRAS G12C mutant at upto 5 uM incubated upto 48 hrs by RT-qPCR analysis; format: functional, cell-based
Quadruplex DNA [14] = experiment: Binding affinity to KRAS utr-1 G-Quadruplex (unknown origin) assessed as dissociation constant by fluorescence spectroscopy; format: nucleic-acid assay
Quadruplex DNA [15] = experiment: Binding affinity to SS12 G-Quadruplex (unknown origin) assessed as dissociation constant by fluorescence spectroscopy; format: nucleic-acid assay
Quadruplex RNA [16] = experiment: Binding affinity to KRAS RNA G-Quadruplex (unknown origin) assessed as melting temperature at 25 uM at 25 to 95 degreeC by CD spectroscopy (reference value: 71.4 degreeC); format: nucleic-acid assay
Quadruplex DNA [17] = experiment: Binding affinity to KRAS DNA G-Quadruplex (unknown origin) assessed as melting temperature at 25 uM at 25 to 95 degreeC by CD spectroscopy (reference value: 50.1 degreeC); format: nucleic-acid assay
Quadruplex RNA [18] = experiment: Binding affinity to NRAS RNA G-Quadruplex (unknown origin) assessed as melting temperature at 25 uM at 25 to 95 degreeC by CD spectroscopy (reference value: 82.2 degreeC); format: nucleic-acid assay
Quadruplex DNA [19] = experiment: Disruption of DHX36/KRAS rG-Quadruplex (unknown origin) by ELISA; format: nucleic-acid assay; settings: dose 20.0 µM
[20] = molecular target: GTPase KRas (Homo sapiens) (UniProt P01116); experiment: Inhibition of KRAS in human MIA PaCa-2 cells assessed as decrease in MEK phosphorylation incubated for 24 hrs by Western blot analysis; format: cell-based; settings: dose 1.25-5 µM
[21] = molecular target: GTPase KRas (Homo sapiens) (UniProt P01116); experiment: Inhibition of KRAS in human MIA PaCa-2 cells assessed as decrease in ERK phosphorylation incubated for 24 hrs by Western blot analysis; format: cell-based; settings: dose 1.25-5 µM
[22] = molecular target: GTPase KRas (Homo sapiens) (UniProt P01116); experiment: Inhibition of KRAS in human MIA PaCa-2 cells assessed as decrease in AKT phosphorylation incubated for 24 hrs by Western blot analysis; format: cell-based; settings: dose 1.25-5 µM
[23] = molecular target: GTPase KRas (Homo sapiens) (UniProt P01116); experiment: Inhibition of KRAS in human MIA PaCa-2 cells assessed as decrease in ERK phosphorylation at 2.5 uM by Western blot analysis; format: cell-based; settings: time <= 24.0 hrs, TDE = time-dependent effect
[24] = molecular target: GTPase KRas (Homo sapiens) (UniProt P01116); experiment: Inhibition of KRAS in human MIA PaCa-2 cells assessed as decrease in AKT phosphorylation at 2.5 uM by Western blot analysis; format: cell-based; settings: time <= 24.0 hrs, TDE = time-dependent effect
MIA PaCa-2 [25] = experiment: Effect on total protein level in human MIA PaCa-2 cells at 2.5 uM incubated for upto 24 hrs by Western blot analysis; format: functional, cell-based
MIA PaCa-2 [26] = experiment: Induction of cell cycle arrest at G2/M phase in human MIA PaCa-2 cells incubated for 24 hrs by PI staining based HCS analysis; format: functional; settings: dose 1.25-5 µM
MIA PaCa-2 [27] = experiment: Induction of apoptosis in human MIA PaCa-2 cells assessed as increase in caspase-3 cleavage by Western blot analysis; format: functional, cell-based; settings: dose 1.25-5 µM
MIA PaCa-2 [28] = experiment: Antitumor activity against human MIA PaCa-2 cells xenografted in BALB/C-nu/nu mouse model assessed as tumor growth inhibition at 2.5 mg/kg,ip everyday for 18 days relative to control; format: functional; settings: MIA PaCa-2, 432 h, time 18 day, read-out: TGI
[29] = Toxicity in BALB/C-nu/nu mouse model xenografted with human MIA PaCa-2 cells assessed as signs of pain at 2.5 to 5 mg/kg,ip everyday for 18 days; format: organism-based; settings: in vivo, 432 h, dose 2.5-5 mg/kg, time 18 day
[30] = Toxicity in BALB/C-nu/nu mouse model xenografted with human MIA PaCa-2 cells assessed as body weight change at 2.5 to 5 mg/kg,ip everyday for 18 days; format: organism-based; settings: in vivo, 432 h, dose 2.5-5 mg/kg, time 18 day
[31] = Toxicity in BALB/C-nu/nu mouse model xenografted with human MIA PaCa-2 cells assessed as toxic sigs in viscera at 2.5 to 5 mg/kg,ip everyday for 18 days; format: organism-based; settings: in vivo, 432 h, dose 2.5-5 mg/kg, time 18 day
[32] = Toxicity in BALB/C-nu/nu mouse model xenografted with human MIA PaCa-2 cells assessed as drug tolerance at 2.5 to 5 mg/kg,ip everyday for 18 days; format: organism-based; settings: in vivo, 432 h, dose 2.5-5 mg/kg, time 18 day
MIA PaCa-2 [33] = experiment: In vivo inhibition of KRAS in human MIA PaCa-2 cells xenografted in BALB/C-nu/nu mouse model at 2.5 to 5 mg/kg,ip everyday for 18 days by IHC analysis; format: functional, organism-based; settings: dose 2.5-5 mg/kg, time 18.0 day
MIA PaCa-2 [34] = experiment: In vivo inhibition of KRAS in human MIA PaCa-2 cells xenografted in BALB/C-nu/nu mouse model at 2.5 to 5 mg/kg,ip everyday for 18 days by Western blot analysis; format: functional, organism-based; settings: dose 2.5-5 mg/kg, time 18.0 day

GTPase KRas (Homo sapiens), sequence (P01116 whole entry, looked up): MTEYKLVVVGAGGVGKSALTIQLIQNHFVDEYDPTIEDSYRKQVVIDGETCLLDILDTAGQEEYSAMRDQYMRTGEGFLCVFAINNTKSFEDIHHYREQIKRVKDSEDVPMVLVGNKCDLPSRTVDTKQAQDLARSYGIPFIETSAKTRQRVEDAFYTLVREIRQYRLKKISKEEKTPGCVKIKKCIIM
GTPase KRas (Homo sapiens), P01116 [G12D], sequence (P01116 whole entry G12D, looked up): as the sequence (P01116 whole entry, looked up) above, with G12D counted along it
GTPase KRas (Homo sapiens), P01116 [G12C], sequence (P01116 whole entry G12C): as the sequence (P01116 whole entry, looked up) above, with G12C counted along it

inhibition [3]: Active
inhibition [7]: Tde
inhibition [8]: Dose-Dependent Effect
inhibition [9]: Tde
inhibition [10]: Dose-Dependent Effect
pKd (Quadruplex DNA [14]): 6.05
pKd (Quadruplex DNA [15]): < 5.30
Tm (Quadruplex RNA [16]): 51.3 °C
Tm (Quadruplex DNA [17]): 52 °C
Tm (Quadruplex RNA [18]): 78.7 °C
Activity (Quadruplex DNA [19]): Dose-Dependent Effect
inhibition [20]: Dose-Dependent Effect
inhibition [21]: Dose-Dependent Effect
inhibition [22]: Dose-Dependent Effect
inhibition [23]: Tde
inhibition [24]: Tde
Structure (SMILES): CCN(CC)c1ccc2cc(/C=C/c3ccc4cc(F)c(NCCN5CCCC5)cc4[n+]3C)c(=O)oc2c1.[I-]
pIC50 (MIA PaCa-2 [1]): 4.48
pIC50 [2]: < 4.40
pIC50 (NCM460): < 4.40
Activity (PANC-1 [4]): inactive
pIC50 (SW-620): 5.29
pIC50 (NCI-H358 [5]): 5.32
pIC50 (U-87 MG): < 4.40
IC50 at 24 h [6]: > 40 µM
Activity (PANC-1 [11]): inactive
Activity (MIA PaCa-2 [12]): inactive
Activity (NCI-H358 [13]): inactive
Activity (MIA PaCa-2 [25]): inactive
Activity (MIA PaCa-2 [26]): Dose-Dependent Effect
Activity (MIA PaCa-2 [27]): Dose-Dependent Effect
inhibition in vivo at 2.5 mg/kg (MIA PaCa-2 [28]): 62%
Activity [29]: Non-Toxic
Activity [30]: Non-Toxic
Activity [31]: Non-Toxic
Activity [32]: Non-Toxic
Activity (MIA PaCa-2 [33]): Active
Activity (MIA PaCa-2 [34]): Active

Source: ChEMBL document CHEMBL5537197, “Discovery of Novel Coumarin-quinolinium Derivatives as Pan-KRAS Translation Inhibitors by Targeting 5'-UTR RNA G-Quadruplexes” (J Med Chem, 2024)
